Source: ChEMBL document CHEMBL3045895 (Med Chem Res, 2012)
Active and inactive are the calls of the source. The calls are words filed in the database; no cut-off is given here.

Key:
[1] = target: T1, Beta-glucuronidase (Homo sapiens) (UniProt P08236); assay: Inhibition of beta-glucuronidase (unknown origin) using p-nitrophenyl-beta-D-glucuronide as substrate at 500 uM incubated for 30 min prior to substrate addition by spectrophotometric analysis
T1 sequence (whole entry): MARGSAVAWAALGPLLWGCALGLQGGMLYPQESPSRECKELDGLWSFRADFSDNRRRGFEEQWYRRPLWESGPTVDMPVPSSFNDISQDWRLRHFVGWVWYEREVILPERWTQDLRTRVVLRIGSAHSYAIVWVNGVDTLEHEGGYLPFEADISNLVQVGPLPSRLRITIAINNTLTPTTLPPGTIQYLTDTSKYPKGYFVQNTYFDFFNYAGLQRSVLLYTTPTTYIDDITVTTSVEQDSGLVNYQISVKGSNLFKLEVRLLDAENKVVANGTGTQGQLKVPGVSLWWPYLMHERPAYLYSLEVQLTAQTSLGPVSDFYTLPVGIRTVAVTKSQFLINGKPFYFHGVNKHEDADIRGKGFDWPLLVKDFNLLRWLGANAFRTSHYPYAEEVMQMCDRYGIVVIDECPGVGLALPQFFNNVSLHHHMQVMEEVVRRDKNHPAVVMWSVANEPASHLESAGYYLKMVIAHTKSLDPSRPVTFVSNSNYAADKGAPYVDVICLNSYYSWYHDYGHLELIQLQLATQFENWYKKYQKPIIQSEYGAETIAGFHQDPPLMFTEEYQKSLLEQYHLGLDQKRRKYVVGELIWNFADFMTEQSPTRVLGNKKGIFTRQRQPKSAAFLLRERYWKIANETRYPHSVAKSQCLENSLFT

Cholinesterase [2] = target: T2, Cholinesterase (Homo sapiens, UniProt P06276); assay: Inhibition of butyrylcholinesterase (unknown origin) using butyrylthiocholine chloride as substrate at 500 uM incubated for 15 min prior to substrate addition measured for 15 min by spectrophotometric analysis
T2 sequence (P06276 whole entry): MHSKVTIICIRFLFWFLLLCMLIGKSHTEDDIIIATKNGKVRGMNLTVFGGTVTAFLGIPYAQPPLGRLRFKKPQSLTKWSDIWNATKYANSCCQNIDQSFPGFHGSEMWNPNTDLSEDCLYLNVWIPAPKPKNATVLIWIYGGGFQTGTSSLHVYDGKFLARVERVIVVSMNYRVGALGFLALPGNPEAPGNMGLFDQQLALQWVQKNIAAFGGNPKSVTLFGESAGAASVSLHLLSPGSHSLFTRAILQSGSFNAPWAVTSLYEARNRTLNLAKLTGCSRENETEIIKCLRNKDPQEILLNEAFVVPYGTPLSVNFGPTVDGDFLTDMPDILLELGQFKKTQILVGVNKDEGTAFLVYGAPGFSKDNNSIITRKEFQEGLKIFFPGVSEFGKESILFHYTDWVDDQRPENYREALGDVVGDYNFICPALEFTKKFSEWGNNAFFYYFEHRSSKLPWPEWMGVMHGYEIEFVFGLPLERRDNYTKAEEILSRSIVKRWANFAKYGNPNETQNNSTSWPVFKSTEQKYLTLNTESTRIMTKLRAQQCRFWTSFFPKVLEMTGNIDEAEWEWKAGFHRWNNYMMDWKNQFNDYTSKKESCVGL

[3] = target: Acetylcholinesterase (Homo sapiens) (UniProt P22303); assay: Inhibition of acetylcholinesterase (unknown origin) using acetylthiocholine iodide as substrate at 500 uM incubated for 15 min prior to substrate addition measured for 15 min by spectrophotometric analysis
Acetylcholinesterase (Homo sapiens), sequence (P22303 whole entry): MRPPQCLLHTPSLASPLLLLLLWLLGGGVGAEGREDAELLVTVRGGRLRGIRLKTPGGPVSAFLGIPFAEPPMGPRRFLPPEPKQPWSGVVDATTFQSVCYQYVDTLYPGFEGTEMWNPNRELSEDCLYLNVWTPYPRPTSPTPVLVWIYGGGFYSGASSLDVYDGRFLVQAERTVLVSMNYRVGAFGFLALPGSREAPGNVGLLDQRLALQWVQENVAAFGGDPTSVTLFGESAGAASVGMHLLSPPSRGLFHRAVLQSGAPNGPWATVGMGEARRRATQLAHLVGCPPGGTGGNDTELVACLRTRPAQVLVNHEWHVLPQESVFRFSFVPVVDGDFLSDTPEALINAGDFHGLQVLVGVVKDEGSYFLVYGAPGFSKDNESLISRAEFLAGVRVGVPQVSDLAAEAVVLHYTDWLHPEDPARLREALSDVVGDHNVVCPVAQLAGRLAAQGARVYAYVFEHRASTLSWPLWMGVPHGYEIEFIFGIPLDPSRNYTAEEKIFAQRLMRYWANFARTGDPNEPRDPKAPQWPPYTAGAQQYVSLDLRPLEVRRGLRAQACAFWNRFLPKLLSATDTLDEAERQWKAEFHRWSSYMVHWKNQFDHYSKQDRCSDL

Urease = Urease (Canavalia ensiformis, UniProt P07374); assay: Inhibition of Canavalia ensiformis (jack bean) urease using urea as substrate after 15 min by indophenol-based spectrophotometric analysis
Urease, sequence (P07374 whole entry): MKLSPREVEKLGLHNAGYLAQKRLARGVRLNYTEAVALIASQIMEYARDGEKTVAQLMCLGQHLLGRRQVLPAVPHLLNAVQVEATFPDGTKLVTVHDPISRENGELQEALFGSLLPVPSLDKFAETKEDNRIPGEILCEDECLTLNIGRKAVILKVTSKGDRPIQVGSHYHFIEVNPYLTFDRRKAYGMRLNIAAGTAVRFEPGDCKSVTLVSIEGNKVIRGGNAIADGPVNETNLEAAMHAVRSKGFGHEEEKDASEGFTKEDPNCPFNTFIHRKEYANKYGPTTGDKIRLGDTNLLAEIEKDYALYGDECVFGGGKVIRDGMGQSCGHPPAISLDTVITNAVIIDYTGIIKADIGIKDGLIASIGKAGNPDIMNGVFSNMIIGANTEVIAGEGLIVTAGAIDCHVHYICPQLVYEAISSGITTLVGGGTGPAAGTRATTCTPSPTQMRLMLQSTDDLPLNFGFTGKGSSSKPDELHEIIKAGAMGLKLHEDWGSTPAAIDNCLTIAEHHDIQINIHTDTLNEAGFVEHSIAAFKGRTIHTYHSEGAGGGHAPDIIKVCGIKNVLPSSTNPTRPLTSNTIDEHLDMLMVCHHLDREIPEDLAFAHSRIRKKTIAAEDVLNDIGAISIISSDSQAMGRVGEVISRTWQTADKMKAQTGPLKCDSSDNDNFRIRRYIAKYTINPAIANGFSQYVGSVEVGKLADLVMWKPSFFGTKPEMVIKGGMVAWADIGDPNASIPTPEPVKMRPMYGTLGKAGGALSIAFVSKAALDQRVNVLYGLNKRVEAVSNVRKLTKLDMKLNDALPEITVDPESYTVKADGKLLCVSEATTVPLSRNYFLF

Homo sapiens = species on record: Homo sapiens; assay: Inhibition of alpha-chymotrypsin (unknown origin) using N-succinyl-phenylalanine-p-nitroanilide as substrate at 500 uM incubated for 25 min prior to substrate by spectrophotometric analysis
[4] = target: Urease (Canavalia ensiformis) (UniProt P07374); assay: Inhibition of Canavalia ensiformis (jack bean) urease using urea as substrate at 500 uM after 15 min by indophenol-based spectrophotometric analysis
Urease (Canavalia ensiformis), sequence (P07374 whole entry, looked up): as the sequence (P07374 whole entry) above

Cholinesterase [5] = target: T2, Cholinesterase; assay: Inhibition of butyrylcholinesterase (unknown origin) using butyrylthiocholine chloride as substrate incubated for 15 min prior to substrate addition measured for 15 min by spectrophotometric analysis
Beta-glucuronidase = target: T3, Beta-glucuronidase (Homo sapiens, UniProt P08236); assay: Inhibition of beta-glucuronidase (unknown origin) using p-nitrophenyl-beta-D-glucuronide as substrate incubated for 30 min prior to substrate addition by spectrophotometric analysis
T3 sequence (P08236 whole entry): T1 sequence (whole entry)

With `Cc1cc(C)n(CO)n1` the inhibition [1] was “inactive”, the inhibition (Cholinesterase [2]) was “inactive” and the inhibition [3] was “inactive”. For the same molecule, the IC50 (Urease) was 94.3 µM and the inhibition (Homo sapiens) was “inactive”.

`Cc1cc(CN(CCO)Cc2cc(C)n(C)n2)nn1C` was tested, and the inhibition [1] was “inactive”, the inhibition [4] was “inactive” and the inhibition [3] was “inactive”. For the same molecule, the IC50 (Cholinesterase [5]) was 68 µM and the inhibition (Homo sapiens) was “inactive”.

`Cc1cc(C)n(CN(Cn2nc(C)cc2C)C2CCCCC2)n1` was tested, and the inhibition (Cholinesterase [2]) was “inactive”, the inhibition [3] was “inactive” and the IC50 (Beta-glucuronidase) was 457 µM. The IC50 (Urease) was 43.5 µM and the inhibition (Homo sapiens) was “inactive”.

For `Cc1cc(C)n(CN(CCO)Cn2nc(C)cc2C)n1`, the inhibition [1] was “inactive”, the inhibition (Cholinesterase [2]) was “inactive” and the inhibition [3] was “inactive”. For the same molecule, the IC50 (Urease) was 44.7 µM and the inhibition (Homo sapiens) was “inactive”.
